Source: PubChem BioAssay (NCI)
Several values for one entry are separate records, joined by “and”; a condition that tells them apart may be missing. Equal entries are not always repeated.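 Growth conditions: 96-well plates. Treatment: test compound, 48 hours, 5 concentrations. Analysis: linear interpolation between bracketing concentrations; unreached endpoints set to highest concentration. At the TGI there is no net growth.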

Experiments:
Experiment in all cases: NCI tumour cell line growth inhibition, 48 h
OVCAR-8 ovarian = tested on: OVCAR-8 ovarian
KM12 colon = tested on: KM12 colon
IGROV1 ovarian = tested on: IGROV1 ovarian
U251 CNS = tested on: U251 CNS
UACC-62 melanoma = tested on: UACC-62 melanoma
NCI-H522 lung = tested on: NCI-H522 lung
CCRF-CEM leukemia = tested on: CCRF-CEM leukemia
SF-268 CNS = tested on: SF-268 CNS
HT29 colon = tested on: HT29 colon
OVCAR-3 ovarian = tested on: OVCAR-3 ovarian
SW-620 colon = tested on: SW-620 colon
NCI-H226 lung = tested on: NCI-H226 lung
HCT-116 colon = tested on: HCT-116 colon
SR leukemia = tested on: SR leukemia

| SMILES | TGI (OVCAR-8 ovarian) | TGI (KM12 colon) | TGI (IGROV1 ovarian) | TGI (U251 CNS) | TGI (UACC-62 melanoma) | TGI (NCI-H522 lung) | TGI (CCRF-CEM leukemia) | TGI (SF-268 CNS) | TGI (HT29 colon) | TGI (OVCAR-3 ovarian) | TGI (SW-620 colon) | TGI (NCI-H226 lung) | TGI (HCT-116 colon) | TGI (SR leukemia) |
| --- | --- | --- | --- | --- | --- | --- | --- | --- | --- | --- | --- | --- | --- | --- |
| C=CCN(N=O)C(=O)N(CCCC(NC(C)=O)C(=O)NCc1ccccc1)Cc1ccccc1 (stereo not drawn) | > 100 µM | > 100 µM | > 100 µM | > 100 µM | > 100 µM | 84.8 µM | 95.6 µM | > 100 µM | 82.4 µM | > 100 µM | > 100 µM |  |  |  |
| COc1cc(C2c3cc4c(cc3[C@@H](NCCN3CCCCC3)C3COC(=O)[C@H]23)OCO4)cc(OC)c1O (stereo partly drawn) | 2.45 µM and 3.41 µM | 3.8 µM and 3.88 µM | 4.56 µM and 7.55 µM | 1.44 µM and 1.62 µM | 1.73 µM and 1.79 µM |  | 0.36 µM and 0.465 µM | 6 µM and 15.8 µM | 3.56 µM | 3.52 µM and 3.72 µM | 11.4 µM and 10.2 µM | 0.209 µM and 0.208 µM | 10.6 µM and 14.6 µM |  |
| COc1c(OC)c(N)c2cc(C)c(=O)c(C)cc2c1N | > 100 µM | > 100 µM | > 100 µM | > 100 µM | > 100 µM | > 100 µM | > 100 µM | > 100 µM | > 100 µM | > 100 µM | 35 µM |  | > 100 µM | 45.7 µM |
| CCC(CC)n1cc(C(=O)NC(=O)NCCCCCOC(=O)CCCCCCCCCCC(=O)OCCCCCNC(=O)NC(=O)c2cn(C(CC)CC)c(=O)[nH]c2=O)c(=O)[nH]c1=O | > 100 µM | > 100 µM | > 100 µM | > 100 µM | > 100 µM | > 100 µM | > 100 µM | > 100 µM | > 100 µM | > 100 µM | > 100 µM | > 100 µM | > 100 µM | > 100 µM |
| CN(C(=O)c1ccc(Cl)cc1)C(=S)N1CCN(c2ccccn2)CC1 | > 100 µM | > 100 µM | > 100 µM | > 100 µM | > 100 µM | > 100 µM | > 100 µM | > 100 µM | > 100 µM | > 100 µM | > 100 µM | > 100 µM | > 100 µM | > 100 µM |
| O=C(Cc1ccccc1)NN1C(=O)C(Cl)C1c1ccc([N+](=O)[O-])cc1 (stereo not drawn) | > 100 µM | > 100 µM | > 100 µM | > 100 µM | > 100 µM | 76.3 µM |  | > 100 µM | > 100 µM | > 100 µM | > 100 µM | > 100 µM | > 100 µM | > 100 µM |
| O=C1NCCCC12CCCNC2=O | > 100 µM | > 100 µM | > 100 µM | > 100 µM |  | > 100 µM | > 100 µM | > 100 µM | > 100 µM | > 100 µM | > 100 µM | > 100 µM | > 100 µM | > 100 µM |
| CCn1c2ccccc2c2ccc3c(c21)C(=O)c1ccccc1C3=O | > 100 µM |  | > 100 µM | > 100 µM | > 100 µM | > 100 µM | > 100 µM | > 100 µM | > 100 µM |  | > 100 µM | > 100 µM | > 100 µM | > 100 µM |
| COC(=O)C1=C(C(=O)OC)C2C(C)=CC(C)=CN2C(C#N)=C(SC)S1 (stereo not drawn) | 65.9 µM |  |  | > 100 µM |  | 46.7 µM | 56.5 µM | 56.8 µM | 44.6 µM | 72.7 µM | 42.7 µM | 39.9 µM | 29.6 µM | 50.5 µM |
| COc1ccc(N(C)Sc2ccccc2)cc1 | > 100 µM | > 100 µM | > 100 µM | > 100 µM | > 100 µM | > 100 µM | 58.6 µM | > 100 µM |  | > 100 µM | > 100 µM |  | > 100 µM | > 100 µM |
| Nc1ccc(C(=O)NN2C(=O)C(Cl)C2c2cc(Br)ccc2O)cc1 (stereo not drawn) | > 100 µM | > 100 µM | 94.3 µM | 90.3 µM | > 100 µM | 38.5 µM | > 100 µM | > 100 µM | > 100 µM | > 100 µM | > 100 µM | > 100 µM | 32.5 µM |  |
| O=C(O)C12C3C4C1C1C2C3C1(Br)C41OCCO1 (stereo not drawn) | > 100 µM | > 100 µM | > 100 µM | > 100 µM |  | > 100 µM | > 100 µM | > 100 µM | > 100 µM | > 100 µM | > 100 µM |  | > 100 µM |  |
| COP(=O)(OC)C(=NCc1ccccc1)NNc1ccc([N+](=O)[O-])cc1 | > 100 µM | > 100 µM | > 100 µM | 66.9 µM | > 100 µM | 38.6 µM | 55.1 µM | 84.9 µM | > 100 µM | > 100 µM | > 100 µM |  | 69 µM | 56.9 µM |
| O/N=C/c1cc2c(cc1Br)OCO2 | > 100 µM | > 100 µM | > 100 µM | > 100 µM | > 100 µM | > 100 µM | > 100 µM |  | > 100 µM | > 100 µM | > 100 µM | > 100 µM | > 100 µM | > 100 µM |
| C=CN1C(=O)OC[C@@H]1c1ccccc1 | > 100 µM | > 100 µM | > 100 µM | > 100 µM | > 100 µM | > 100 µM | > 100 µM | > 100 µM | > 100 µM | > 100 µM | 37.9 µM | > 100 µM | > 100 µM |  |
